The structures appear in SMILES notation. “And” between values parts separate entries of the source, which are not always exact repeats. Equal values may be shown once. Read-outs that look alike come from different tables or passages of the source.

Series [1] in a line: pKa measurement by absorbance at 280 nm as a function of pH. In kind it is physicochemical. The following applies: for pKa: aqueous buffer solutions in 96-well microplate, 1 mM DBA2+Br, absorbance at 280 nm vs pH. On the procedure:
100 mM buffer solutions for titration from pH 4 to pH 11.5 were prepared with different buffer systems to ensure the accuracy of pH for the following tests. NaAc/HAc was prepared for pH 4.05, 4.53, 5.03 and 5.53; Na2HPO4/NaH2PO4 was prepared for pH 6.00, 6.51, 6.99 and 7.51; NaB(OH)4/B(OH)3 was prepared for pH 8.05, 8.56 9.03 and 9.53; Na2CO3/NaHCO3 was prepared for pH 10.01, 10.54, 11.01 and 11.49.
50 μL of buffer solutions at different pH was added into 96 microplate wells. Then 50 μL of 2 mM DBA2+Br or a mixture of 2 mM DBA2+Br and 400 mM glucose in water was added to each well.
After shaking for 10 s and waiting for 10 min, the absorbance of each well at 280 nm was recorded on a microplate reader.
Due to the interaction between borate and glucose, the pH of the borate buffer solution is changed and thus the data for DBA2+Br/Glucose from pH 8 to 9.5 were abandoned. The rest of the data was plotted in Origin. The equilibrium equation for DBA2+ is as follows: […]
Then equation (4) is used for non-linear fitting in Origin, and pKa is defined as the pH at which half of the boronic acid is in the anionic state:
The same non-linear curve fitting also was used for the determination of pKa of DBAG2+G which has equilibrium equation as follow: […]
The pKa of DBA2+ before and after glucose binding was determined based on the differences in absorption spectra upon formation of tetrahedral borate anion in high pH media (Springsteen, et al., Tetrahedron, 58:5291-5300 (2002)).
pKa values were determined by curve fitting the changes in absorbance as a function of pH (FIG. 1).

The nature of series [2]: Dissociation constant (Kd) by UV absorbance titration at 280 nm, glucose. The class given is binding. The following applies: 1 mM DBA2+Br, 50 mM phosphate buffer pH 7.4. The method, then:
100 μL of glucose aqueous solutions with two-fold serial dilutions from 1024 mM to 0.5 mM were added into a 96 well microplate. Then 100 μL of 2 mM DBA2+Br in 100 mM phosphate buffer (pH=7.4) was added. After shaking for 10 s and waiting for 30 min, the absorbance of each well at 280 nm was recorded on a microplate reader.
(§1) The affinity and selectivity of DBA+ to glucose were then tested by comparing affinity with other five mono- or di-saccharides, particularly fructose, galactose, maltose, sucrose, and lactose. The UV absorption changes at 280 nm of DBA+ with the increase of sugar concentration was used for the affinity calculation. The absorbance values of 1 mM DBA+Br at 280 nm as function of sugar concentrations from 0 to 512 mM were measured in 50 mM Phosphate PBS (pH=7.4).
The titration data was plotted. The disassociation equation for complex DBAG is as follows: […]
where DBAG refers to all three possible complexes, DBA2+G, DBA1+G and DBA-G, and DBA2 refers to all the unbound molecules, DBA2+, DBA1+ and DBA0.
(§2) where sqrt refers to the square root 11 Equation (11) is used for non-linear fitting in Origin to obtain the Kd values.
(§3) The disassociation constant (Kd) of DBA2+ was calculated through non-linear curve fitting according to previous work (Stootman, et al., Analyst, 131:1145-1151 (2006)).

Series [3] can be described thus: Dissociation constant (Kd) by UV absorbance titration at 280 nm, fructose. To be noted: 1 mM DBA2+Br, 50 mM phosphate buffer pH 7.4. The class given is binding. The method, then: as §1, §2, §3
A short description of series [4]: Dissociation constant (Kd) by UV absorbance titration at 280 nm, galactose. In kind it is binding. To be noted: 1 mM DBA2+Br, 50 mM phosphate buffer pH 7.4. The method, then:
as §1, §2, §3

A short description of series [5]: Dissociation constant (Kd) by UV absorbance titration at 280 nm, maltose. In kind it is binding. To be noted: 1 mM DBA2+Br, 50 mM phosphate buffer pH 7.4. On the procedure:
as §1, §2, §3

Series [6] in a line: Dissociation constant (Kd) by UV absorbance titration at 280 nm, sucrose. The class given is binding. To be noted: 1 mM DBA2+Br, 50 mM phosphate buffer pH 7.4. The method, then:
as §1, §2, §3

Series [7] is described as follows: Dissociation constant (Kd) by UV absorbance titration at 280 nm, lactose. The class given is binding. The following applies: 1 mM DBA2+Br, 50 mM phosphate buffer pH 7.4. On the procedure: as §1, §2, §3
A short description of series [8]: Effect of interference sugars on DBA2+ based conductimetric sensor (solution resistance). The following applies: interference sugar 1 mM (maltose 10 mM), relative to resistance with glucose alone. On the procedure: To a reservoir in a device set up as depicted shown in FIG. 3, 1 mL of the initial testing solution (2 mM DBA2+P and 2.5 mM Na3PO4, pH=7.6) was added. Direct current voltage is 0 mV due to the same material for two electrodes. Alternating current voltage was set at 20 mV, and the impedance was scanned vs. frequency from 10 Hz to 10 MHz (FIGS. 4A-4C). At 0.1 MHz, the capacitive reactance is very small compared to the resistance (R) of the solution, and thus this frequency was used for the following tests.
To the testing solution, trace quantities (2-5 μL) of a concentrated (0.5 or 2 M) glucose aqueous solution were continuously added. Glucose solutions were added every 30 minutes with concentrations spanning the diabetes-relevant range, (i.e. [glucose]=0-30 mM). The resistance of solution vs. time was collected for 30 min after each addition. After adding glucose to 30 mM, the testing solution was diluted to 12 mM by adding 1.5 mL of fresh testing solution. 1.5 mL was then discharged after mixing and the resistance of the remaining 1 mL solution was monitored.
Interference effects from other sugars, i.e. fructose, galactose, maltose, and lactose, were examined. Tests were performed at two different glucose concentrations typically experienced in diabetes, 5 mM (i.e. a physiological concentration of glucose) and 20 mM (i.e. a pathophysiological concentration of glucose) in 1 mL of testing solution. In these tests, interferent concentrations were higher or equal to 2.5 times the maximum plasma concentration (MPC). To the testing solution containing glucose, 2 μL or 5 μL of one of the interference solutions (containing fructose, galactose, maltose, or lactose) were added and the solution resistance (R) was monitored. The interference by 1 mM fructose or galactose was tested due to the considerable high affinity compared to the other […].

For series [9] the following is noted: maximum physiological or therapeutic plasma concentration, cited from earlier work.
[10] abbreviates: presence of 200 mM glucose (DBA-G), read-out: pKa in the presence of glucose.
The mark [11] stands for this setting: testing solution with 5 mM glucose.
The mark [12] stands for this setting: testing solution with 20 mM glucose.

With `C[N+](C)(Cc1ccc(C[N+](C)(C)Cc2ccccc2B(O)O)cc1)Cc1ccccc1B(O)O` [DBA2+], the values for the pKa1 in series [1] (absence of glucose) and in [1] (presence of 200 mM glucose) were 9.0 and 5.9, respectively. Further, the pKa2 in [1] (absence of glucose) was 9.7; in series [1] (presence of 200 mM glucose), 6.9. The pKa in series [1] (absence of glucose, read-out: pKa) came to 9.4; in series [1] (setting [10]), 6.3. In series [1] (upon glucose binding, centers around pH 7.4), the “change in pKa for DBA2+ and DBA-G” value is on record as around 3 unit. Further, the equilibrium dissociation constant (Kd) in [2] was 900 ± 100 µM; in [3] it was 1700 µM; in series [3] (listed as Formula III), around 1700 µM; in series [4], 16000 µM; in series [4] (listed as Formula III) it was around 16000 µM. Moreover, the “Kd value for maltose” value in [5] was “could not be determined due to their low affinity”. Besides, the “Kd value for sucrose” value in series [6] is recorded as “could not be determined due to their low affinity”. The “Kd value for lactose” value in series [7] is “could not be determined due to their low affinity”.
Take `C[N+]1(C)Cc2ccc(cc2)C[N+](C)(C)Cc2ccccc2[B-]2(O)OC3OC4CO[B-](O)(OC4C(O)C3O2)c2ccccc2C1` (centres unmarked) [DBA-G]: the pKa in series [1] (setting [10]) stood at 6.3.
Consider `O=C(CO)[C@@H](O)[C@H](O)[C@H](O)CO` [Fructose, fructose], for which the Resistance increase in series [8] (setting [11]) is 3% and 2.9%; in series [8] (setting [12]), −0.3%. Also, the “Max plasma [sugar]” value in series [9] is 0.133 mM; in series [9] (listed as fructose), 0.13 mM.
In the case of `O=C[C@H](O)[C@@H](O)[C@@H](O)[C@H](O)CO` [Galactose, galactose], the Resistance increase in series [8] (setting [11]) worked out at 1.4%; in series [8] (setting [12]) it was 0.6%. Also, in series [9], the “Max plasma [sugar]” value is given as 0.28 mM.
Regarding `OC[C@H]1O[C@@H](O[C@H]2[C@H](O)[C@@H](O)C(O)O[C@@H]2CO)[C@H](O)[C@@H](O)[C@H]1O` (some centres unmarked) [Lactose, lactose], the Resistance increase in [8] (setting [11]) came to 0.2%; in series [8] (setting [12]) it was 1.6%. The “Max plasma [sugar]” value in [9] is 0.015 mM.
As for `OC[C@H]1O[C@H](O[C@H]2[C@H](O)[C@@H](O)[C@H](O)O[C@@H]2CO)[C@H](O)[C@@H](O)[C@@H]1O` [Maltose, maltose], the results for the Resistance increase in [8] (setting [11]) and in series [8] (setting [12]) were 0.4% and 1.6%, respectively. Moreover, the “Max plasma [sugar]” value in series [9] is reported as 3.5 mM.

As a reminder, the pKa is the pH at which an ionisable group is half protonated. One may read the Kd as the free concentration of one partner at which half of the binding sites on the other are occupied at equilibrium, for simple one-to-one binding.

Source of the values: US20220204531A1, “DIBORONIC ACID COMPOUNDS AND METHODS OF MAKING AND USING THEREOF” (The Regents of The University of California, priority 2020, published 2022).
